Target: T1, Hemagglutinin-neuraminidase (Human parainfluenza virus 1, UniProt Q06992)
T1 sequence (Q06992 whole entry): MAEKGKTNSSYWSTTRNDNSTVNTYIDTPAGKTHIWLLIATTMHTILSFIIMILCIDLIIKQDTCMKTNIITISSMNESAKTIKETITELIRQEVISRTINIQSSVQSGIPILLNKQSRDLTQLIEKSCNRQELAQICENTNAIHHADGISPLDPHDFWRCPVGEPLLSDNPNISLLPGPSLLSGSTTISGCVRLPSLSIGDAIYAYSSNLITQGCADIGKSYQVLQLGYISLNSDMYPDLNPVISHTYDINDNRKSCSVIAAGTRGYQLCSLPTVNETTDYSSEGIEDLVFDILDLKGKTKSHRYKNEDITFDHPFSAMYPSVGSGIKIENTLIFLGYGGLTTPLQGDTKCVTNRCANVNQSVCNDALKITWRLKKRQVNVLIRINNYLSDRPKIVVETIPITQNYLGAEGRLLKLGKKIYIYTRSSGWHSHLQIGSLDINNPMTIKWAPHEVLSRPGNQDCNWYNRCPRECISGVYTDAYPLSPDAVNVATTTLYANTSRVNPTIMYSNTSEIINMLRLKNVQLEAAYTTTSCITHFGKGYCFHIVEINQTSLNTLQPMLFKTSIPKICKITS
Assay: Inhibition of Human parainfluenza virus 1 sialidase using N-acetyl-alpha-neuramic acid by fluorometric assay
Parameters: species or system Human respirovirus 1

`CCCc1ccc(C/C(=N/S(C)(=O)=O)N[C@H]2C=C(C(=O)O)O[C@@H]([C@H](O)[C@H](O)CO)[C@@H]2NC(C)=O)cc1` and `CC(=O)N[C@H]1[C@H]([C@H](O)[C@H](O)CO)OC(C(=O)O)=C[C@@H]1N=C(Cc1ccc(F)cc1)NS(C)(=O)=O` are the same in IC50: 1.6 mM for the first, 1.6 mM for the second.

First: CC(=O)N[C@H]1[C@H]([C@H](O)[C@H](O)CO)OC(C(=O)O)=C[C@@H]1N=C(C)NS(C)(=O)=O
Second: CC(=O)N[C@H]1[C@H]([C@H](O)[C@H](O)CO)OC(C(=O)O)=C[C@@H]1N=C(Cc1cccs1)NS(C)(=O)=O
The IC50 of the first is 8-fold higher: 16 mM for the first, 2 mM for the second.

Compared with `CC(=O)N[C@H]1[C@H]([C@H](O)[C@H](O)CO)OC(C(=O)O)=C[C@@H]1OCC/C(=N\S(=O)(=O)c1ccc(C)cc1)N(C(C)C)C(C)C`, `CCN(CC)/C(CCO[C@H]1C=C(C(=O)O)O[C@@H]([C@H](O)[C@H](O)CO)[C@@H]1NC(C)=O)=N\S(=O)(=O)c1ccc(C)cc1` is 1.9-fold higher in IC50: 4.8 mM for the first, 9.1 mM for the second. The first is the more potent here.

Going from `CC(=O)N[C@H]1[C@H]([C@H](O)[C@H](O)CO)OC(C(=O)O)=C[C@@H]1OCCC(=Nc1ccccc1)NS(C)(=O)=O` to `CC(=O)N[C@H]1[C@H]([C@H](O)[C@H](O)CO)OC(C(=O)O)=C[C@@H]1N=C(Cc1ccccc1)NS(C)(=O)=O`, the IC50 rises from 0.8 mM to 2.1 mM (2.6-fold).

First: CC(=O)N[C@H]1[C@H]([C@H](O)[C@H](O)CO)OC(C(=O)O)=C[C@@H]1N=C(CC1=CCCCC1)NS(C)(=O)=O
Second: CC(=O)NC1[C@H](C(O)[C@H](O)CO)OC(C(=O)O)=C[C@@H]1O (single isomer, unassigned) [NEU5AC2EN]
The IC50 of the first is 5-fold higher: 1.5 mM for the first, 0.3 mM for the second. The second is the more potent here.

First: CC(=O)N[C@H]1[C@H]([C@H](O)[C@H](O)CO)OC(C(=O)O)=C[C@@H]1OCCC(=NC(C)C)NS(=O)(=O)c1ccc(C)cc1
Second: CCN(CC)/C(CCO[C@H]1C=C(C(=O)O)O[C@@H]([C@H](O)[C@H](O)CO)[C@@H]1NC(C)=O)=N/S(C)(=O)=O
The IC50 of the first is 5.1-fold higher: 7.7 mM for the first, 1.5 mM for the second.

Source: ChEMBL document CHEMBL1765079, “Syntheses of 2-deoxy-2,3-didehydro-N-acetylneuraminic acid analogues modified by N-sulfonylamidino groups at the C-4 position and biological evaluation as inhibitors of human parainfluenza virus type 1” (Bioorg Med Chem, 2011)
